Patent US20120093948A1, “Nitric Oxide Treatments” (priority 2009, published 2012)
Like-named read-outs stand apart in the source and are kept apart here.

Tests used:
[1] = system: Mouse; conditions: less than 1 ppm, cited from earlier work
[2] = system: man; conditions: cited from earlier work
[3] = system: Rabbit; conditions: less than 1 ppm, duration 24 days; cited from earlier work
[4] = system: Guinea Pig; conditions: less than 1 ppm, duration 7 days; cited from earlier work
[5] = system: patents suffering massive pulmonary embolism; conditions: inhaled; cited from earlier work
[6] = system: patients with pulmonary tuberculosis; conditions: 80 ppm; cited from earlier work
[7] = system: dogs; assay: Fourteen-day toxicity study using the delivery devices, dogs; assay type: in vivo; conditions: doses well in excess of 80 ppm NO
[8] = system: mice models of malaria; conditions: mouse, in vivo; cited from earlier work
[9] = system: patients with pulmonary fibrosis; conditions: inhaled; cited from earlier work
[10] = system: newborns with hypoxic respiratory failure; conditions: inhaled; cited from earlier work
[11] = system: patients with cardiogenic shock due to RVMI; conditions: cited from earlier work
[12] = system: rats; assay: Fourteen-day toxicity study using the delivery devices, rats; assay type: in vivo; conditions: doses well in excess of 80 ppm NO
[13] = system: child with traumatic brain injury; conditions: NO therapy; cited from earlier work
[14] = system: COPD patients; conditions: NO with oxygen, 3 month period, compared to oxygen alone; cited from earlier work
[15] = system: patients with acute lung injury/acute respiratory distress syndrome; conditions: conventional iNO; cited from earlier work

Which results are given for `[O]N=O` [NO2, nitrogen dioxide]?
OUTCOME(S) ([1]; duration 1 day): Increased ascorbic acid levels in the liver; OUTCOME(S) ([1]; duration 90 days): Depression in serum neutralizing; OUTCOME ([2]; NO2 dose 0.1 ppm, exposure 60 min, asthmatics): 13/16 asthmatics increase in reaction to; OUTCOME ([2]; NO2 dose 0.7-2.0 ppm, exposure 10 min): Increase in inspiratory and expiratory flow; OUTCOME ([2]; NO2 dose 1.6-2.0 ppm, exposure 15 min): Significant increase in total airway resistance; OUTCOME(S) [3]: Structural changes in lung collagen fibers; OUTCOME(S) [4]: Increased protein content of lung lavage fluid

Which “systemic blood pressures, heart rate and gas exchange” value [5] does the source give for `[N]=O` [NO, nitric oxide] here?
The value was “improvements”.

And the safety of delivery [6]?
Its safety of delivery is “safely delivered”.

What about the “Fourteen-day toxicity study outcome” value [7] of the same compound?
The value was “successfully been completed”.

And the neurological damage [8]?
Its neurological damage is “protection”.

And the survival [8]?
The survival was “increased chance of survival”.

And the arterial oxygen tension [9]?
The arterial oxygen tension was “without a decrease”.

What about the pulmonary vascular resistance [9] of the same compound?
Its pulmonary vascular resistance is “decreased”.

And the ventilation perfusion matching [9]?
The ventilation perfusion matching was “maintained”.

What about the arterial oxygen levels [10] of the same compound?
Its arterial oxygen levels is “safely improves”.

And the “need for Extracorporeal Membrane Oxygenation (ECMO)” value [10]?
Its value is “decreases”.

What about the “decreased mPAP” value ([11]; NO 80 ppm acutely) of the same compound?
The value was 12%.

What about the “decreased mRAP” value ([11]; NO 80 ppm acutely) of the same compound?
Its value is 12%.

What about the improved cardiac index ([11]; NO 80 ppm acutely) of the same compound?
The improved cardiac index was 24%.

And the decrease shunt flow ([11]; inhaled NO)?
Its decrease shunt flow is 56%.

What about the systemic oxygen saturation ([11]; inhaled NO) of the same compound?
Its systemic oxygen saturation is “markedly improved”.

What about the “Fourteen-day toxicity study outcome” value [12] of the same compound?
The value was “successfully been completed”.

What about the adverse cerebral effects [13] of the same compound?
Its adverse cerebral effects is “No adverse cerebral effects”.

What about the oxygenation [14] of the same compound?
Its oxygenation is “did not result in a decrease”.

What about the “outcomes (increased PaO2, survival)” value [15] of the same compound?
The value was “positive outcomes”.
